In patent US20220288045A1, “Stable Pharmaceutical Composition Comprising Esomeprazole And Sodium Bicarbonate” (Chong Kun Dang Pharmaceutical Corp., priority 2019, published 2022):
Where two headings read alike, the source gives them in different places.

Assays:
[1] = aqueous solutions with 3 or less of a pH value; cited from earlier work
[2] = Stability test of esomeprazole and omeprazole according to pH (HPLC content in buffer solution); format: physicochemical; conditions: in % (unit assumed)
Experimental: After adding each 2 mL of 20 mg/mL strength of esomeprazole and omeprazole solutions to 100 mL of buffer solution, the content according to pH was analyzed, and the analysis method is as follows. <Analysis Method> A) Detector: Ultraviolet visible light absorption spectrometer (measurement wavelength: 280 nm) B) Column: Inertsil C8-3 (4.6×150 mm, 5 μm) or equivalent column C) Injection amount: 20 μl D) Flow rate: 1.5 mL/min E) Column temperature: constant temperature around 40° C. F) Sample temperature: constant temperature around 10° C.

[3] = for pH: 200 mL artificial gastric juice + 200 mL purified water, 37° C.
From the text: To set the content of sodium bicarbonate, the drug release conditions and gastric juice conditions were set as follows.

COc1ccc2nc([S@@+]([O-])Cc3ncc(C)c(OC)c3C)[nH]c2c1 [S-omeprazole, (S)-5-methoxy-24(4-methoxy-3,5-dimethyl-2-pyridinyl)-methyllsulfinyl-1H-benzimidazole]
decomposition half-life [1]: less than 10 minutes | content according to pH ([2]; pH4.0, 5 min): 64.1 | content according to pH ([2]; pH4.0, 10 min): 31.0 | content according to pH ([2]; pH4.0, 15 min): 15.9 | content according to pH ([2]; pH4.0, 30 min): 6.9 | content according to pH ([2]; pH4.0, 45 min): 1.7 | content according to pH ([2]; pH4.0, 60 min): 0.9 | content according to pH ([2]; pH4.0, 120 min): 0.1 | content according to pH ([2]; pH6.0, 5 min): 74.4 | content according to pH ([2]; pH6.0, 10 min): 72.8 | content according to pH ([2]; pH6.0, 15 min): 71.0 | content according to pH ([2]; pH6.0, 30 min): 68.9 | content according to pH ([2]; pH6.0, 45 min): 66.3 | content according to pH ([2]; pH6.0, 60 min): 63.6 | content according to pH ([2]; pH6.0, 120 min): 54.9 | content according to pH ([2]; pH6.8, 5 min): 95.6 | content according to pH ([2]; pH6.8, 10 min): 90.8 | content according to pH ([2]; pH6.8, 15 min): 90.5 | content according to pH ([2]; pH6.8, 30 min): 89.7 | content according to pH ([2]; pH6.8, 45 min): 88.9 | content according to pH ([2]; pH6.8, 60 min): 88.3 | content according to pH ([2]; pH6.8, 120 min): 86.2 | content according to pH ([2]; pH7.0, 5 min): 99.6 | content according to pH ([2]; pH7.0, 10 min): 99.0 | content according to pH ([2]; pH7.0, 15 min): 99.3 | content according to pH ([2]; pH7.0, 30 min): 98.9 | content according to pH ([2]; pH7.0, 45 min): 98.7 | content according to pH ([2]; pH7.0, 60 min): 98.1 | content according to pH ([2]; pH7.0, 120 min): 96.8 | content according to pH ([2]; pH7.3, 5 min): 100.1 | content according to pH ([2]; pH7.3, 10 min): 100.1 | content according to pH ([2]; pH7.3, 15 min): 100.0 | content according to pH ([2]; pH7.3, 30 min): 100.0 | content according to pH ([2]; pH7.3, 45 min): 100.0 | content according to pH ([2]; pH7.3, 60 min): 100.0 | content according to pH ([2]; pH7.3, 120 min): 99.90 | content according to pH ([2]; pH7.5, 5 min): 99.4 | content according to pH ([2]; pH7.5, 10 min): 99.3 | content according to pH ([2]; pH7.5, 15 min): 99.2 | content according to pH ([2]; pH7.5, 30 min): 99.1 | content according to pH ([2]; pH7.5, 45 min): 99.3 | content according to pH ([2]; pH7.5, 60 min): 99.1 | content according to pH ([2]; pH7.5, 120 min): 98.2 | content according to pH ([2]; pH8.0, 15 min): 101.1 | content according to pH ([2]; pH8.0, 30 min): 100.9 | content according to pH ([2]; pH8.0, 45 min): 100.7 | content according to pH ([2]; pH8.0, 60 min): 100.7 | content according to pH ([2]; pH8.0, 120 min): 100.0

O=C([O-])O.[Na+] [Sodium bicarbonate]
amount of sodium bicarbonate that can represent neutral pH by neutralizing 200 mL of artificial gastric juice ([3]; 200 mL artificial gastric juice): at least 600 mg | pH ([3]; Sodium bicarbonate 500 mg): 5.77 | pH ([3]; Sodium bicarbonate 600 mg): 6.51 | pH ([3]; Sodium bicarbonate 700 mg): 7.30 | pH ([3]; Sodium bicarbonate 800 mg): 7.30 | pH ([3]; Sodium bicarbonate 900 mg): 7.31 | pH ([3]; Sodium bicarbonate 1,000 mg): 7.37 | pH ([3]; Sodium bicarbonate 1,100 mg): 7.38 | pH ([3]; Sodium bicarbonate 1,200 mg): 7.38 | pH ([3]; Sodium bicarbonate 1,300 mg): 7.40
